Values quoted from earlier work, collected in PMC5879685 (Proceedings of the National Academy of Sciences of the …, 2018).

| SMILES | Effect on PKG (PKG) | Effect on CNGC (CNGC) |
| --- | --- | --- |
| Nc1nc2c(ncn2[C@@H]2O[C@@H]3COP(O)(=S)O[C@H]3[C@H]2O)c(=O)[nH]1 (single isomer, unassigned) [B, Guanosine-3′,5′-cyclic monophosphorothioate, RP-isomer] | − | + |
| Nc1nc2c(nc(Br)n2[C@@H]2O[C@@H]3COP(O)(=S)O[C@H]3[C@H]2O)c(=O)[nH]1 (single isomer, unassigned) [C, 8-bromoguanosine-3′,5′-cyclic monophosphorothioate, RP-isomer] | − | + |
| Nc1nc2c(ncn2[C@@H]2O[C@@H]3COP(=O)(O)O[C@H]3[C@H]2O)c(=O)[nH]1 [Compound A, Guanosine-3′,5′-cyclic monophosphate] | + | + |
